Data from patent US20200163984A1, “USE OF ISOVALERYL SPIRAMYCIN I, II AND/OR III IN MANUFACTURING MEDICAMENT FOR TREATING AND/OR PREVENTING TUMOR, AND MEDICAMENT” (SHENYANG FUYANG PHARMACEUTICAL TECHNOLOGY CO., LTD., priority 2017, published 2020).

Experiments:
[1] = test system: transplanted tumor of human breast cancer cell MCF-7; assay: MCF-7 transplanted tumor in nude mice
Description: (§1) Then cell concentration was adjusted to 1×10^7/ml with matrigel, then each nude mouse was inoculated subcutaneously with 0.2 ml of cells at its right armpit and recorded as the first day of inoculation. When the tumor grows to be greater than or equal to 100 mm^3, the mice were randomly divided into 11 groups with 6 mice in each group: a model group, a cyclophosphamide group, isovaleryl spiramycin I groups with doses of 25, 50 and 100 mg/kg, isovaleryl spiramycin II groups with doses of 25, 50 and 100 mg/kg, and isovaleryl spiramycin III groups with doses of 25, 50 and 100 mg/kg. Each group was continuously administered intragastrically for 30 days with a dose of 20 ml/kg. The mice were sacrificed the next day after drug withdrawal and the indicators were tested. The long diameter and short diameter of the tumor, and the body weight of each mouse were recorded every 3 days from drug administration to nude mouse sacrifice.
(§2) The body weight of the nude mice and the long diameter (a) and short diameter (b) of the transplanted tumor were measured every 3 days, and the tumor volume (v), relative tumor volume (RTV) and relative tumor proliferation rate (T/C) are calculated respectively according to the following formulas, wherein V=a×b^2/2; RTV=V/V0 (V0 is the tumor volume before administration, V is the tumor volume before sacrifice), and T/C (%)=treatment group RTV/model control group RTV×100%.
(§3) Each mouse was weighed and sacrificed. After the tumor was completely stripped off from the body of the mouse, the non-tumor tissues such as blood stains and fat were removed to weigh the tumor and calculate the tumor growth inhibition rate. The average tumor weight of each group of mice is used as an indicator of efficacy. Tumor growth inhibition rate (%)=(1−the average tumor weight of the treatment group/the average tumor weight of the model group)×100%.

[2] = test system: transplanted tumor of human bladder cancer cell T-24; assay: T-24 transplanted tumor in nude mice; details: for Tumor Volume (mm3) (d30): d 30
Description: as §1, with “group:” for “group: a model group, a cyclophosphamide group,”
as §2, §3

[3] = test system: transplanted tumor of HL60 cells; assay: HL-60 transplanted tumor in nude mice; details: for Tumor Volume (mm3) (d30): d 30
Description: as §1, with “HL-60 cells in a logarithmic growth phase were taken and subjected to a trypan blue exclusion experiment showing that the cell viability was more than 95%, then the cells were subjected to trypsinization, centrifugation, and supernatant removal. Then” for “Then”, “group:” for “group: a model group, a cyclophosphamide group,”, “the” for “the body”
as §2, §3

[4] = MCF-7, 25 mg/kg (low dose) i.g. 30 days
[5] = MCF-7, 50 mg/kg (medium dose) i.g. 30 days
[6] = MCF-7, 100 mg/kg (high dose) i.g. 30 days
[7] = T-24, high dose (100 mg/kg in method) i.g. 30 days
[8] = T-24, low dose (25 mg/kg in method) i.g. 30 days
[9] = T-24, medium dose (50 mg/kg in method) i.g. 30 days
[10] = HL-60, high dose (100 mg/kg in method) i.g. 30 days
[11] = HL-60, low dose (25 mg/kg in method) i.g. 30 days
[12] = HL-60, medium dose (50 mg/kg in method) i.g. 30 days

CCC(=O)O[C@@H]1CC(=O)O[C@H](C)C/C=C/C=C/[C@H](O[C@H]2CC[C@H](N(C)C)[C@@H](C)O2)[C@H](C)C[C@H](CC=O)[C@H](O[C@@H]2O[C@H](C)[C@@H](O[C@H]3C[C@@](C)(O)[C@@H](OC(=O)CC(C)C)[C@H](C)O3)[C@H](N(C)C)[C@H]2O)[C@H]1OC [Isovaleryl spiramycin III, isovaleryl spiramycin III]
Inhibition Rate (tumor growth inhibition rate) [1, 4]: 26.75%
Relative Tumor Proliferation Rate (T/C) [1, 4]: 75.03%
Relative Tumor Volume (RTV) [1, 4]: 13.13 ± 3.15
Tumor Volume (d 1) [1, 4]: 137.99 ± 20.99 mm3
Tumor Volume (d 30) [1, 4]: 1758.49 ± 129.06 mm3
Tumor Weight [1, 4]: 1.99 ± 0.81 g
Inhibition Rate (tumor growth inhibition rate) [1, 5]: 39.09%
Relative Tumor Proliferation Rate (T/C) [1, 5]: 54.92%
Relative Tumor Volume (RTV) [1, 5]: 9.61 ± 1.66
Tumor Volume (d 1) [1, 5]: 109.95 ± 13.42 mm3
Tumor Volume (d 30) [1, 5]: 1043.33 ± 113.01 mm3
Tumor Weight [1, 5]: 1.66 ± 0.66 g
Inhibition Rate (tumor growth inhibition rate) ([1]; MCF-7, 50 mg/kg (medium dose) i.g. 30 days, listed as isovaleryl spiramycin III): 39.08%
Inhibition Rate (tumor growth inhibition rate) [1, 6]: 61.78%
Relative Tumor Proliferation Rate (T/C) [1, 6]: 34.90%
Relative Tumor Volume (RTV) [1, 6]: 5.17 ± 0.64
Tumor Volume (d 1) [1, 6]: 113.14 ± 9.02 mm3
Tumor Volume (d 30) [1, 6]: 684.21 ± 115.00 mm3
Tumor Weight [1, 6]: 1.03 ± 0.54 g
Relative Tumor Proliferation Rate (T/C) ([1]; MCF-7, 100 mg/kg (high dose) i.g. 30 days, listed as isovaleryl spiramycin III): 34.91%
tumor volume and relative tumor volume compared with the model group ([1]; MCF-7, low, medium and high doses, P<0.05): significantly lower
mouse weight compared with the model group ([1]; mouse, in vivo): no significant changes
Relative Tumor Proliferation Rate (T/C) [2, 7]: 39.39%
tumor growth inhibition rate [2, 7]: 61.30%
Relative Tumor Proliferation Rate (T/C) [2, 8]: 80.34%
tumor growth inhibition rate [2, 8]: 21.00%
tumor volume and relative tumor volume compared with the model group ([2]; T-24, low, medium and high doses, P<0.05): significantly lower
Relative Tumor Proliferation Rate (T/C) [2, 9]: 62.35%
tumor growth inhibition rate [2, 9]: 44.84%
Inhibition Rate (%) ([2]; dose 25 mg/kg): 21.00%
Relative Tumor Proliferation Rate (T/C) ([2]; dose 25 mg/kg): 80.34%
Relative Tumor Volume (RTV) ([2]; dose 25 mg/kg): 10.61 ± 2.24
Tumor Weight ([2]; dose 25 mg/kg): 1.48 ± 0.43 g
Tumor Volume (mm3) (d 1) ([2]; dose 25 mg/kg): 135.55 ± 18.08 mm3
Tumor Volume (mm3) (d30) ([2]; dose 25 mg/kg): 1427.95 ± 311.97 mm3
Inhibition Rate (%) ([2]; dose 50 mg/kg): 44.84%
Relative Tumor Proliferation Rate (T/C) ([2]; dose 50 mg/kg): 62.35%
Relative Tumor Volume (RTV) ([2]; dose 50 mg/kg): 8.24 ± 0.38
Tumor Weight ([2]; dose 50 mg/kg): 1.03 ± 0.42 g
Tumor Volume (mm3) (d 1) ([2]; dose 50 mg/kg): 136.32 ± 15.54 mm3
Tumor Volume (mm3) (d30) ([2]; dose 50 mg/kg): 1123.28 ± 140.84 mm3
Inhibition Rate (%) ([2]; dose 100 mg/kg): 61.30%
Relative Tumor Proliferation Rate (T/C) ([2]; dose 100 mg/kg): 39.39%
Relative Tumor Volume (RTV) ([2]; dose 100 mg/kg): 5.20 ± 0.71
Tumor Weight ([2]; dose 100 mg/kg): 0.73 ± 0.20 g
Tumor Volume (mm3) (d 1) ([2]; dose 100 mg/kg): 134.53 ± 20.46 mm3
Tumor Volume (mm3) (d30) ([2]; dose 100 mg/kg): 697.48 ± 130.89 mm3
mouse weight compared with the model group ([2]; mouse, in vivo): no significant changes
Body Weight (g) (d1) ([2]; mouse, in vivo, 25 mg/kg): 19.57 ± 0.52 g
Body Weight (g) (d30) ([2]; mouse, in vivo, 25 mg/kg): 25.72 ± 1.53 g
Body Weight (g) (d1) ([2]; mouse, in vivo, 50 mg/kg): 19.61 ± 0.44 g
Body Weight (g) (d30) ([2]; mouse, in vivo, 50 mg/kg): 26.47 ± 0.52 g
Body Weight (g) (d1) ([2]; mouse, in vivo, 100 mg/kg): 19.90 ± 0.58 g
Body Weight (g) (d30) ([2]; mouse, in vivo, 100 mg/kg): 25.05 ± 0.93 g
Relative Tumor Proliferation Rate (T/C) [3, 10]: 39.87%
tumor growth inhibition rate [3, 10]: 55.05%
Relative Tumor Proliferation Rate (T/C) [3, 11]: 76.09%
tumor growth inhibition rate [3, 11]: 17.10%
tumor volume and relative tumor volume compared with the model group ([3]; HL-60, low, medium and high doses, P<0.05): significantly lower
Relative Tumor Proliferation Rate (T/C) [3, 12]: 61.90%
tumor growth inhibition rate [3, 12]: 29.92%
Inhibition Rate (%) ([3]; dose 25 mg/kg): 17.10%
Relative Tumor Proliferation Rate (T/C) ([3]; dose 25 mg/kg): 76.09%
Relative Tumor Volume (RTV) ([3]; dose 25 mg/kg): 8.56 ± 1.82
Tumor Weight ([3]; dose 25 mg/kg): 1.88 ± 0.25 g
Tumor Volume (mm3) (d 1) ([3]; dose 25 mg/kg): 184.12 ± 22.53 mm3
Tumor Volume (mm3) (d30) ([3]; dose 25 mg/kg): 1543.27 ± 190.73 mm3
Inhibition Rate (%) ([3]; dose 50 mg/kg): 29.92%
Relative Tumor Proliferation Rate (T/C) ([3]; dose 50 mg/kg): 61.90%
Relative Tumor Volume (RTV) ([3]; dose 50 mg/kg): 6.96 ± 2.25
Tumor Weight ([3]; dose 50 mg/kg): 1.59 ± 0.45 g
Tumor Volume (mm3) (d 1) ([3]; dose 50 mg/kg): 189.31 ± 24.59 mm3
Tumor Volume (mm3) (d30) ([3]; dose 50 mg/kg): 1308.87 ± 436.30 mm3
Inhibition Rate (%) ([3]; dose 100 mg/kg): 55.05%
Relative Tumor Proliferation Rate (T/C) ([3]; dose 100 mg/kg): 39.87%
Relative Tumor Volume (RTV) ([3]; dose 100 mg/kg): 4.48 ± 2.94
Tumor Weight ([3]; dose 100 mg/kg): 1.01 ± 0.41 g
Tumor Volume (mm3) (d 1) ([3]; dose 100 mg/kg): 188.01 ± 27.66 mm3
Tumor Volume (mm3) (d30) ([3]; dose 100 mg/kg): 789.65 ± 404.78 mm3
mouse weight compared with the model group ([3]; mouse, in vivo): no significant changes
Body Weight (g) (d1) ([3]; mouse, in vivo, 25 mg/kg): 20.60 ± 1.57 g
Body Weight (g) (d30) ([3]; mouse, in vivo, 25 mg/kg): 20.67 ± 1.51 g
Body Weight (g) (d1) ([3]; mouse, in vivo, 50 mg/kg): 20.82 ± 1.42 g
Body Weight (g) (d30) ([3]; mouse, in vivo, 50 mg/kg): 20.59 ± 1.36 g
Body Weight (g) (d1) ([3]; mouse, in vivo, 100 mg/kg): 20.2l ± l .87 g
Body Weight (g) (d30) ([3]; mouse, in vivo, 100 mg/kg): 20.25 ± 1.22 g
